27 molecules from ChEMBL document CHEMBL1201862, “PubChem BioAssay data set” (2004) can be followed below.

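Assay format: 96-well plates, 48-hour exposure. Here, GI50 denotes the concentration required for 50% inhibition of growth.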 Active and inactive are the calls of the source. No stated cut-off is given here; in the data, active = GI50 up to about 1.1 µM and inactive = higher.

Among the test systems are LXFL 529; SNB-78; XF498; KM-20L2; HOP-18; RXF 631; M19-MEL; DLD-1; DMS-114.
Common to all, as to test: NCI tumour cell line growth inhibition, 48 h

Consider `CCCCCCCCCCCC(=O)c1c(O)cccc1O`, for which the GI50 with LXFL 529 is 18.5 µM (inactive); with SNB-78, 21.8 µM (inactive); with XF498, 18.3 µM (inactive); in the assay with KM-20L2 it was 21.7 µM (inactive); with HOP-18 it was 16.2 µM (inactive); in the assay on RXF 631, 18.7 µM (inactive). Moreover, the GI50 in the assay with M19-MEL was 18.8 µM (inactive); in the assay with DLD-1 it was 17.8 µM (inactive); with DMS-114, 19.2 µM (inactive).

With `Cc1c(C(=O)Nc2ccc(Cl)c(C(F)(F)F)c2)oc2cc(O)ccc2/c1=N\NC(N)=S`, the GI50 in the assay on LXFL 529, with SNB-78, in the assay with XF498, in the assay on KM-20L2, in the assay with HOP-18 and in the assay on M19-MEL was > 100 µM (inactive) in each case. The GI50 with DLD-1 and with DMS-114 was > 100 µM (inactive) in each case.

Consider `Oc1cc2cc(-c3ccccc3)[nH]c2c2ccccc12`, for which the GI50 was 24.5 µM (inactive) in the assay with LXFL 529; 54.6 µM (inactive) in the assay with SNB-78; 1.63 µM (inactive) in the assay with XF498; > 96.2 µM (inactive) in the assay on KM-20L2; 32.7 µM (inactive) with HOP-18; 22.7 µM (inactive) in the assay with RXF 631. Further, the GI50 with M19-MEL is 15.5 µM (inactive); in the assay on DLD-1 it was 32 µM (inactive); in the assay on DMS-114, 13.6 µM (inactive).

On to `CCC1c2cc3n(c(=O)c2COC1O)Cc1c-3nc2ccccc2c1Cl` (centres undefined), for which the GI50 is > 80.7 µM (inactive) with LXFL 529; > 100 µM (inactive) in the assay with SNB-78; > 100 µM (inactive) in the assay on XF498; > 69.7 µM (inactive) in the assay on KM-20L2; > 75.7 µM (inactive) in the assay with HOP-18; 69.3 µM (inactive) in the assay on M19-MEL. Further, the GI50 is 99.1 µM (inactive) in the assay with DLD-1 and 49.4 µM (inactive) with DMS-114.

In the case of `CC(C)(C)C1CCC2(CC1)CCN(CCCN1CCOCC1)CC2`, the GI50 in the assay on LXFL 529 was 8.36 µM (inactive); in the assay on SNB-78, 38.5 µM (inactive); in the assay on KM-20L2, 2.18 µM (inactive); in the assay with RXF 631 it was 14.4 µM (inactive); in the assay on M19-MEL, 12.5 µM (inactive); in the assay with DLD-1, 24.4 µM (inactive). Moreover, the GI50 in the assay with DMS-114 was 16.5 µM (inactive).

Turning to `Clc1ccc(C2=Nc3ccccc3SC(c3cccs3)C2)cc1` (centres undefined), the GI50 in the assay on LXFL 529 is 17.5 µM (inactive); in the assay with SNB-78 it was 28.9 µM (inactive); in the assay on XF498 it was 16.1 µM (inactive); with KM-20L2 it was 16.6 µM (inactive); in the assay with HOP-18, 18.6 µM (inactive); in the assay on M19-MEL, 15.2 µM (inactive). The GI50 is 10.1 µM (inactive) with DLD-1 and 15.2 µM (inactive) with DMS-114.

Regarding `COc1nc(OC)c2c(=O)oc(-c3ccccc3)cc2n1`, the GI50 in the assay on LXFL 529, in the assay with SNB-78, with KM-20L2, in the assay on M19-MEL and with DMS-114 was > 100 µM (inactive) throughout.

For the molecule `COc1ccc2c(c1)CC1NC2Cc2ccccc21` (centres undefined), the GI50 with LXFL 529, in the assay on SNB-78, in the assay on XF498, in the assay with KM-20L2, with HOP-18 and in the assay on M19-MEL was > 100 µM (inactive) each time. For the same molecule, the GI50 in the assay on DLD-1 and with DMS-114 was > 100 µM (inactive) in each case.

Take `N=C(N)NNC(=O)CCCCCCCC(=O)NNC(=N)N`: the GI50 in the assay on LXFL 529, in the assay with SNB-78, in the assay on KM-20L2, in the assay on RXF 631, with M19-MEL and with DLD-1 was > 100 µM (inactive) each time. For the same molecule, in the assay with DMS-114, the GI50 was 62.7 µM (inactive).

As to `CCOC(=O)C1=C(C)NC(=O)NC1c1ccc(OC)cc1OC` (centres undefined), the GI50 in the assay with LXFL 529, in the assay with SNB-78, with XF498, in the assay on KM-20L2, in the assay with HOP-18 and in the assay on M19-MEL was > 100 µM (inactive) each time. The GI50 in the assay on DLD-1 and in the assay with DMS-114 was > 100 µM (inactive) throughout.

On to `COc1ccc2c(c1)[n+]([O-])c(-c1nc3ccccc3s1)c(N)[n+]2[O-]`, for which the GI50 in the assay on LXFL 529 is 58.1 µM (inactive); in the assay on SNB-78, > 100 µM (inactive); in the assay on KM-20L2, > 100 µM (inactive); with HOP-18, > 100 µM (inactive); in the assay with RXF 631 it was 88.5 µM (inactive); with M19-MEL, 49.7 µM (inactive). Further, the GI50 in the assay with DLD-1 is 69.2 µM (inactive).

Consider `CCOC(=O)c1cc(/C=C/C(C)=C/C(=O)OC)oc1C`, for which the GI50 with LXFL 529, in the assay with SNB-78, in the assay with XF498, in the assay with KM-20L2, in the assay on M19-MEL and in the assay on DLD-1 was > 100 µM (inactive) each time. Moreover, in the assay on DMS-114, the GI50 was > 100 µM (inactive).

For the molecule `Cc1nc(-c2nc(C)c(C(=O)/C=C/c3ccc(N(C)C)cc3)s2)sc1C(=O)/C=C/c1ccc(N(C)C)cc1`, the GI50 with LXFL 529 is 34.8 µM (inactive); with XF498 it was 23.4 µM (inactive); in the assay on KM-20L2, > 100 µM (inactive); in the assay on RXF 631, > 100 µM (inactive); with M19-MEL, 51.1 µM (inactive); in the assay on DLD-1 it was 29.5 µM (inactive). In addition, the GI50 in the assay on DMS-114 was > 100 µM (inactive).

Consider `COc1cc(NS(=O)(=O)c2ccc(C)cc2)c2nccnc2c1`, for which the GI50 in the assay with LXFL 529 was 20.8 µM (inactive); in the assay with XF498 it was 29 µM (inactive); in the assay with KM-20L2, 32.1 µM (inactive); in the assay on HOP-18, 93.5 µM (inactive); with M19-MEL it was 19.5 µM (inactive); in the assay on DLD-1, 30.3 µM (inactive). Besides, in the assay with DMS-114, the GI50 is 14.6 µM (inactive).

In the case of `CCOC(=O)C1=C(Nc2cccc3ccccc23)OCC1=O`, the GI50 with LXFL 529, with SNB-78, in the assay with XF498, in the assay with KM-20L2, with RXF 631 and in the assay with DLD-1 was > 100 µM (inactive) each time.

`O=C1C=CC(=O)c2nc3c(cc21)CCC3`: the GI50 in the assay on LXFL 529 was 15.5 µM (inactive); in the assay on SNB-78, 18.5 µM (inactive); with XF498 it was 18.6 µM (inactive); in the assay with HOP-18 it was 14.5 µM (inactive); in the assay with RXF 631 it was > 100 µM (inactive); with M19-MEL it was 17.2 µM (inactive). Also, the figures for the GI50 in the assay on DLD-1 and in the assay on DMS-114 were 18.7 µM (inactive) and 18.3 µM (inactive), respectively.

Turning to `Brc1cccc(C2SCc3nc4ccccc4n32)c1` (centres undefined), the GI50 was 20.6 µM (inactive) in the assay on LXFL 529; 28.3 µM (inactive) in the assay on SNB-78; 18.2 µM (inactive) in the assay on M19-MEL; 12.9 µM (inactive) in the assay on DLD-1; 13.7 µM (inactive) in the assay on DMS-114.

As to `Cc1ccc([S+](c2ccccc2)c2cc(C)ccc2C)cc1` (centres undefined), the GI50 is 1.38 µM (inactive) in the assay on HOP-18, 1.62 µM (inactive) in the assay with M19-MEL, 1.81 µM (inactive) in the assay with DLD-1 and 1.08 µM (active) in the assay with DMS-114.

Turning to `N=C(N)N/N=C/c1c[nH]c2ccccc12`, the GI50 with LXFL 529 was > 100 µM (inactive); in the assay with SNB-78, > 100 µM (inactive); in the assay with KM-20L2, > 100 µM (inactive); with HOP-18, > 100 µM (inactive); in the assay on DLD-1, > 100 µM (inactive); with DMS-114 it was 81.8 µM (inactive).

In the case of `CN(C)CCNC(=O)c1cccc2ccc(-c3ccncc3)nc12`, the GI50 is 7.24 µM (inactive) with SNB-78; 3.47 µM (inactive) in the assay with HOP-18; 1.89 µM (inactive) in the assay on M19-MEL; 2.48 µM (inactive) in the assay on DLD-1; 2.96 µM (inactive) with DMS-114.

On to `COc1cc(Cl)c2c3c(c(C(C)=O)oc13)CCC2`, for which the GI50 with LXFL 529, in the assay on SNB-78, in the assay on KM-20L2, in the assay on HOP-18, in the assay with RXF 631 and with M19-MEL was > 100 µM (inactive) in each case. For the same molecule, the GI50 in the assay on DLD-1 and in the assay with DMS-114 was > 100 µM (inactive) each time.

Take `CCOC(=O)/C(=C\c1ccccc1)C(=O)O`: the GI50 with SNB-78, in the assay on XF498, in the assay with KM-20L2, in the assay on M19-MEL and in the assay on DMS-114 was > 100 µM (inactive) each time.

Consider `CCCc1c2c([nH]c(=O)c1C)C(=O)c1[nH]c(=O)c(C)c(CCC)c1C2=O`, for which the GI50 in the assay on LXFL 529 is 63.2 µM (inactive); in the assay on SNB-78, 30.3 µM (inactive); with HOP-18 it was > 100 µM (inactive); in the assay on M19-MEL, 2.21 µM (inactive); in the assay on DMS-114 it was 2.51 µM (inactive).

With `CC1=C[C@H]2c3c([nH]c4ccccc34)C(c3c[nH]c4ccccc34)[C@H]2CC1` (some centres undefined), the GI50 with LXFL 529 was 4.29 µM (inactive); in the assay with SNB-78, 3.53 µM (inactive); in the assay on HOP-18, 11.7 µM (inactive); with RXF 631, 3.57 µM (inactive); with M19-MEL, 10.3 µM (inactive); in the assay with DLD-1, 6.43 µM (inactive). Also, in the assay on DMS-114, the GI50 was 5.74 µM (inactive).

For the molecule `CO[C@H](C(=O)O[C@H]1C(=O)N2CC[C@@H]3CCC[C@H]1C32C)c1ccccc1` (some centres undefined), the GI50 in the assay on LXFL 529, in the assay with SNB-78, in the assay on KM-20L2, with M19-MEL, in the assay on DLD-1 and with DMS-114 was > 100 µM (inactive) in each case.

Consider `O=C(/C=C/c1ccc[nH]1)c1ccccc1`, for which the GI50 is > 100 µM (inactive) with LXFL 529; > 100 µM (inactive) in the assay on SNB-78; > 100 µM (inactive) in the assay with KM-20L2; 40.2 µM (inactive) with HOP-18; > 100 µM (inactive) in the assay on M19-MEL; > 100 µM (inactive) in the assay on DLD-1. Moreover, the GI50 with DMS-114 is > 100 µM (inactive).

On to `Nc1cccc2c1C(=O)c1cccc(N)c1C2=O`, for which the GI50 in the assay with LXFL 529 is > 100 µM (inactive); in the assay with SNB-78 it was > 100 µM (inactive); in the assay on XF498, 19.4 µM (inactive); in the assay with KM-20L2, > 100 µM (inactive); in the assay with RXF 631 it was > 100 µM (inactive); with M19-MEL, > 100 µM (inactive). Also, the GI50 in the assay with DLD-1 was > 100 µM (inactive).
